Results taken from ChEMBL document CHEMBL1124113, “Melanin concentrating hormone analogues: contraction of the cyclic structure. 1. Agonist activity” (J Med Chem, 1988).
Bridge positions count the residues as written; N and C are the ends. Peptide text beside a SMILES is read from it.

Key:
[1] = test system: melanocortin receptor (frog); assay: Melanosome dispersion (skin darkening) within melanocytes (Alpha-MSH-like activity), measured on tetrapod skin; e =Inactive at 10e-5
[2] = test system: Melanin-concentrating hormone receptor (Synbranchus marmoratus); assay: Melanin concentrating hormone(MCH) activity, causes melanosome aggregation within integumental fish melanocytes and lightening of the skin; d = Inactive at 10e-6 M
[3] = test system: melanocortin receptor (frog); assay: Melanosome dispersion (skin darkening) within melanocytes (Alpha-MSH-like activity), measured on tetrapod skin; e = Inactive at 10e-5
[4] = test system: melanocortin receptor (frog); assay: Melanosome dispersion (skin darkening) within melanocytes (Alpha-MSH-like activity), measured on tetrapod skin; Inactive at 10e-5
[5] = test system: Melanin-concentrating hormone receptor (Synbranchus marmoratus); assay: Melanin concentrating hormone(MCH) activity, causes melanosome aggregation within integumental fish melanocytes and lightening of the skin; d = Inactive at 10e-6 M; remark: listed apart in the source

| Structure (SMILES) | EC50 [2] | further results |
| --- | --- | --- |
| CSCC[C@H](NC(=O)[C@H](C)N)C(=O)N[C@H]1CSSC[C@@H](C(=O)N[C@@H](Cc2c[nH]c3ccccc23)C(=O)N[C@@H](CCC(=O)O)C(=O)N[C@H](C(=O)O)C(C)C)NC(=O)[C@@H]2CCCN2C(=O)[C@H](CCCN=C(N)N)NC(=O)[C@H](Cc2ccc(O)cc2)NC(=O)[C@H](C(C)C)NC(=O)[C@H](CCCN=C(N)N)NC(=O)CNC1=O (H-AMCGRVYRPCWEV-OH; disulfide 3-10) | Not Active | EC50 [1]: Not Active |
| CSCC[C@H](NC(=O)[C@H](C)N)C(=O)N[C@H](C(=O)N[C@H]1CSSC[C@@H](C(=O)N[C@@H](Cc2c[nH]c3ccccc23)C(=O)N[C@@H](CCC(=O)O)C(=O)N[C@H](C(=O)O)C(C)C)NC(=O)[C@@H]2CCCN2C(=O)[C@H](CCCN=C(N)N)NC(=O)[C@H](Cc2ccc(O)cc2)NC(=O)[C@H](C(C)C)NC(=O)[C@H](CCCN=C(N)N)NC1=O)C(C)C (H-AMVCRVYRPCWEV-OH; disulfide 4-10) |  | EC50 [3]: Not Active |
| CSCC[C@H](NC(=O)[C@H](C)N)C(=O)N[C@H](C(=O)NCC(=O)N[C@@H](CCCN=C(N)N)C(=O)N[C@H]1CSSC[C@@H](C(=O)N[C@@H](Cc2c[nH]c3ccccc23)C(=O)N[C@@H](CCC(=O)O)C(=O)N[C@H](C(=O)O)C(C)C)NC(=O)[C@@H]2CCCN2C(=O)[C@H](CCCN=C(N)N)NC(=O)[C@H](Cc2ccc(O)cc2)NC1=O)C(C)C (H-AMVGRCYRPCWEV-OH; disulfide 6-10) | Not Active |  |
| CC(C)[C@H](NC(=O)[C@H](CCC(=O)O)NC(=O)[C@H](Cc1c[nH]c2ccccc12)NC(=O)[C@@H]1CSSC[C@H](N)C(=O)NCC(=O)N[C@@H](CCCN=C(N)N)C(=O)N[C@@H](C(C)C)C(=O)N[C@@H](Cc2ccc(O)cc2)C(=O)N[C@@H](CCCN=C(N)N)C(=O)N2CCC[C@H]2C(=O)N1)C(=O)O (H-CGRVYRPCWEV-OH; disulfide 1-8) | Not Active |  |
| CC(C)[C@H](NC(=O)[C@H](CCC(=O)O)NC(=O)[C@H](Cc1c[nH]c2ccccc12)NC(=O)[C@@H]1CSSC[C@H](N)C(=O)N[C@@H](CCCN=C(N)N)C(=O)N[C@@H](C(C)C)C(=O)N[C@@H](Cc2ccc(O)cc2)C(=O)N[C@@H](CCCN=C(N)N)C(=O)N2CCC[C@H]2C(=O)N1)C(=O)O (H-CRVYRPCWEV-OH; disulfide 1-7) |  | EC50 [4]: Not Active |
| CC(C)[C@H](NC(=O)[C@H](CCC(=O)O)NC(=O)[C@H](Cc1c[nH]c2ccccc12)NC(=O)[C@@H]1CSSC[C@H](N)C(=O)N[C@@H](Cc2ccc(O)cc2)C(=O)N[C@@H](CCCN=C(N)N)C(=O)N2CCC[C@H]2C(=O)N1)C(=O)O (H-CYRPCWEV-OH; disulfide 1-5) |  | EC50 [4]: Not Active |
| CSCC[C@H](NC(=O)[C@H](C)NC(=O)[C@H](CCCN=C(N)N)NC(=O)[C@H](CCSC)NC(=O)[C@@H](NC(=O)[C@@H](N)CC(=O)O)[C@@H](C)O)C(=O)N[C@H]1CSSC[C@@H](C(=O)N[C@@H](Cc2c[nH]c3ccccc23)C(=O)N[C@@H](CCC(=O)O)C(=O)N[C@H](C(=O)O)C(C)C)NC(=O)[C@@H]2CCCN2C(=O)[C@H](CCCN=C(N)N)NC(=O)[C@H](Cc2ccc(O)cc2)NC(=O)[C@H](C(C)C)NC(=O)[C@H](CCCN=C(N)N)NC(=O)CNC1=O (H-DTMRAMCGRVYRPCWEV-OH; disulfide 7-14) | Not Active |  |
| CSCC[C@H](NC(=O)[C@H](C)NC(=O)[C@H](CCCN=C(N)N)NC(=O)[C@H](CCSC)NC(=O)[C@@H](NC(=O)[C@@H](N)CC(=O)O)[C@@H](C)O)C(=O)N[C@H](C(=O)N[C@H]1CSSC[C@@H](C(=O)N[C@@H](Cc2c[nH]c3ccccc23)C(=O)N[C@@H](CCC(=O)O)C(=O)N[C@H](C(=O)O)C(C)C)NC(=O)[C@@H]2CCCN2C(=O)[C@H](CCCN=C(N)N)NC(=O)[C@H](Cc2ccc(O)cc2)NC(=O)[C@H](C(C)C)NC(=O)[C@H](CCCN=C(N)N)NC1=O)C(C)C (H-DTMRAMVCRVYRPCWEV-OH; disulfide 8-14) | Not Active |  |
| CSCC[C@H](NC(=O)[C@H](C)NC(=O)[C@H](CCCN=C(N)N)NC(=O)[C@H](CCSC)NC(=O)[C@@H](NC(=O)[C@@H](N)CC(=O)O)[C@@H](C)O)C(=O)N[C@H](C(=O)NCC(=O)N[C@@H](CCCN=C(N)N)C(=O)N[C@H]1CSSC[C@@H](C(=O)N[C@@H](Cc2c[nH]c3ccccc23)C(=O)N[C@@H](CCC(=O)O)C(=O)N[C@H](C(=O)O)C(C)C)NC(=O)[C@@H]2CCCN2C(=O)[C@H](CCCN=C(N)N)NC(=O)[C@H](Cc2ccc(O)cc2)NC1=O)C(C)C (H-DTMRAMVGRCYRPCWEV-OH; disulfide 10-14) |  | EC50 [5]: Not Active |
